# Laboratory results as given in the Kinase Knowledgebase extract (Sharma et al. 2016).
# Molecular target: PIK3CG (human) (UniProt P48736)
# Test: Inhibition of PIK3CG Kinase Activity
# Sequence of PIK3CG (human) (P48736 whole entry, looked up): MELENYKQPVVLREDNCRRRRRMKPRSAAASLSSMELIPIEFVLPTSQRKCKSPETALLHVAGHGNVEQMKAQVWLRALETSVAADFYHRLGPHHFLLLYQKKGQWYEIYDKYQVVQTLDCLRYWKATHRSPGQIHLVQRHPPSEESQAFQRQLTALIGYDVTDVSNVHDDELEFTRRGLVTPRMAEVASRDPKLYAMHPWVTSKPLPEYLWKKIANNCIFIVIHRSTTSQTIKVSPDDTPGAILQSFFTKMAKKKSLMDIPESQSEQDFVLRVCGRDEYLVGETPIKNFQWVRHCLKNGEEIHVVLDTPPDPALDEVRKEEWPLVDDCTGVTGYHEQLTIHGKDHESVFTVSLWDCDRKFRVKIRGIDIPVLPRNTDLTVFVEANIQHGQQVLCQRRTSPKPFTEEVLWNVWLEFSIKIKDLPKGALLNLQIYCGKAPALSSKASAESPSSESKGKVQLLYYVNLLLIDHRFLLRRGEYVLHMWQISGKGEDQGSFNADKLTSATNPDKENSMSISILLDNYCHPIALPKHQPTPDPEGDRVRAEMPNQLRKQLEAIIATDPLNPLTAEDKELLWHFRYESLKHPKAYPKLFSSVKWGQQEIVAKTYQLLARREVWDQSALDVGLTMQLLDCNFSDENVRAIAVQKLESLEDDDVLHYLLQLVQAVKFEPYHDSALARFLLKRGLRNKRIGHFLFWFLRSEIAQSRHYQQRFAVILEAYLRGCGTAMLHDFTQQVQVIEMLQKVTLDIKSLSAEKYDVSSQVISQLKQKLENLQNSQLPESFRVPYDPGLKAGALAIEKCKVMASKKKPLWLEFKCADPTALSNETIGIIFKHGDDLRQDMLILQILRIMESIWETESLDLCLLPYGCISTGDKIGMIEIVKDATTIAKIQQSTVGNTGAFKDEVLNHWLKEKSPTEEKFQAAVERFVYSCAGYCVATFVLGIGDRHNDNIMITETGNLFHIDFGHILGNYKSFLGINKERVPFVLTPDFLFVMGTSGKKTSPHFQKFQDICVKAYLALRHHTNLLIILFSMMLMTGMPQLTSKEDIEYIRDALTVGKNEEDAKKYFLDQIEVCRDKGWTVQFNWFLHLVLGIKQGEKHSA
row,Compound,Ki [nM]
1,COc1cncc(-c2cc(C)c3c(n2)[C@@H](C)N(c2ccn(C[C@H](C)O)n2)C3=O)c1,< 100
2,Cc1cc(-c2cncc(O)c2)nc2c1C(=O)N(c1cnn(CC(F)(F)F)c1)C2,< 100
3,COc1cc(-c2ccc3c(n2)CN(c2cncs2)C3=O)cnc1OC,< 100
4,COc1cc(-c2ccc3c(c2)CN(c2cncc(C)c2)C3=O)cnc1OC,< 100
5,COc1cc(-c2cc(C)c3c(n2)C(C)(C)N(c2cnn(CC(F)(F)F)c2)C3=O)cnc1F,< 100
6,COc1cc(-c2ccc3c(n2)[C@H](C)N(c2ccnc(CC#N)c2)C3=O)cnc1OC,< 100
7,COc1cc(-c2cc(C3CC3)c3c(n2)CN(c2cnn(CC(F)(F)F)c2)C3=O)cnc1OC,< 100
8,COc1cc(N2Cc3nc(-c4cnc(OC)c(OC)c4)ccc3C2=O)n[nH]1,< 100
9,COc1cc(-c2cc(C)c3c(n2)CN(c2ccn([C@H]4CCOC4)n2)C3=O)cnc1F,< 100
10,COc1cncc(-c2cc(C)c3c(n2)C(C)(C)N(c2cnn(CC(F)F)c2)C3=O)c1,< 100
11,COc1cncc(-c2cc(C)c3c(n2)CN(c2ccn(C4COC4)n2)C3=O)c1,< 100
12,COc1cc(-c2ccc3c(n2)CN(c2cnn(CCN4CCN(C(C)=O)CC4)c2)C3=O)cnc1OC,100 to 490
13,Cc1cc(-c2cncc(OC3CC3)c2)nc2c1C(=O)N(c1cnn(CC(F)(F)F)c1)C2(C)C,< 100
14,COc1cncc(-c2cc(C)c3c(n2)C2(CCNCC2)N(c2cnn(CC(F)(F)F)c2)C3=O)c1,100 to 490
15,COc1cc(-c2ccc3c(n2)CN(c2ccc(N4CCC(F)CC4)nc2)C3=O)cnc1OC,< 100
16,COc1ccc(-c2cc(C)c3c(c2)C(C)N(c2cnn(CC(F)(F)F)c2)C3=O)cc1OC (stereo not drawn),< 100
17,COCn1cc(N2Cc3nc(-c4cnc(OC)c(OC)c4)ccc3C2=O)cn1,< 100
18,COc1ncc(-c2ccc3c(n2)CN(c2cnn(C(C)(C)C#N)c2)C3=O)cc1OC(F)F,< 100
19,COc1cc(-c2cc(C)c3c(n2)CN(c2ccc(OCCC(F)(F)F)nc2)C3=O)cnc1OC,< 100
20,CCc1cc(N2Cc3nc(-c4cnc(OC)c(OC)c4)cc(C)c3C2=O)n[nH]1,< 100
21,COCCn1cc(N2Cc3cc(-c4cnc(OC)c(OC)c4)ccc3C2=O)cn1,100 to 490
22,COc1ncc(-c2cc(C)c3c(n2)CN(c2cnn(CC(F)(F)F)c2)C3=O)cc1OC1CCOCC1,< 100
23,COc1ncc(-c2cc(C)c3c(n2)CN(c2cn[nH]c2)C3=O)cc1OCC(F)F,< 100
24,COc1ncc(-c2cc(C)c3c(n2)C(C)(C)N(c2cnn(CC(F)(F)F)c2)C3=O)cc1C(=O)NC[C@@H](O)CO,< 100

row,Compound,Ki [nM]
1,COc1cc(-c2ccc3c(n2)CN(c2ccc(N(C)CCC4OCCO4)nc2)C3=O)cnc1OC,100 to 490
2,COc1cc(-c2ccc3c(n2)CN(c2cnn([C@@H](C)C#N)c2)C3=O)cnc1OC,< 100
3,CCCCn1cc(N2Cc3cc(-c4cnc(OC)c(OC)c4)ccc3C2=O)cn1,100 to 490
4,COc1cc(-c2ccc3c(n2)CN(c2ccn(CC4CCCCO4)n2)C3=O)cnc1OC (stereo not drawn),< 100
5,CCc1cc(N2Cc3nc(-c4cnc(OC)c(OC)c4)ccc3C2=O)nn1C[C@H](C)O,< 100
6,N#CCn1cc(N2Cc3cc(-c4cncc(S(N)(=O)=O)c4)ccc3C2=O)cn1,< 100
7,CCc1cc(N2Cc3nc(-c4cnc(OC)c(OC)c4)ccc3C2=O)nn1C,< 100
8,Cc1cc(-c2cncc(Cl)c2)nc2c1C(=O)N(c1cnn(CC#N)c1)C2,< 100
9,CCNC(=O)c1cc(-c2cc(C)c3c(n2)C(C)(C)N(c2cnn(CC(F)(F)F)c2)C3=O)cnc1C,< 100
10,CCn1ccc(N2C(=O)c3c(C)cc(-c4cncc(OC)c4)nc3[C@H]2C)n1,< 100
11,COc1ncc(-c2cc(C)c3c(n2)C(C)(C)N(c2cnn(CC(F)(F)F)c2)C3=O)cc1C(=O)N(C)C,< 100
12,COc1cc(-c2ccc3c(n2)CN(c2ccc(N(C)CC4OCCO4)nc2)C3=O)cnc1OC,100 to 490
13,Cc1cc(-c2cncc(OCC(F)F)c2)nc2c1C(=O)N(c1cnn(CC(F)(F)F)c1)C2O (stereo not drawn),< 100
14,COc1ccc(-c2cc(C)c3c(n2)CN(c2cnn(CC#N)c2)C3=O)cc1OC,< 100
15,Cc1cc(-c2cncc(N)c2)nc2c1C(=O)N(c1cnn(CC(F)(F)F)c1)C2(C)C,< 100
16,COc1cc(-c2cc(C)c3c(n2)C(C)(C)N(c2cnn(C[C@H](C)O)c2)C3=O)cnc1OC,< 100
17,Cc1cc(-c2cncc(OCC(F)(F)F)c2)nc2c1C(=O)N(c1cnn(CC(F)(F)F)c1)C2(C)C,< 100
18,Cc1cc(-c2cnc(C)c(C(=O)NC(C)C)c2)nc2c1C(=O)N(c1cnn(CC(F)(F)F)c1)C2(C)C,< 100
19,CCOc1cncc(-c2cc(C)c3c(n2)[C@]2(CCOC2)N(c2cnn(CC(F)(F)F)c2)C3=O)c1,< 100
20,COc1cc(-c2cc(C)c3c(n2)[C@H](C)N(c2cnn(CC(F)(F)F)c2)C3=O)cnc1C,< 100
21,COc1cncc(-c2cc(C)c3c(n2)C(C)N(c2ccn([C@@H]4CCOC4)n2)C3=O)c1 (stereo partly drawn),< 100
22,COc1ncc(-c2cc(C)c3c(n2)C(C)(C)N(c2cnn(CC(F)(F)F)c2)C3=O)cc1C(=O)O,< 100
23,COc1cc(-c2cc(C)c3c(n2)CN(c2cnn(CC(F)F)c2)C3=O)cnc1OC,< 100
24,COCCOc1ncc(-c2cc(C)c3c(n2)[C@@H](C)N(c2ccn(C)n2)C3=O)cc1OC,< 100

# Other lines, results leading:
row,Ki [nM],Compound
1,< 100,COc1ccc(-c2cc(C)c3c(n2)CN(c2cnn(CC#N)c2)C3=O)nc1OC
2,< 100,COc1cc(-c2cc(C)c3c(n2)[C@@H](C)N(c2cnn(CC(F)(F)F)c2)C3=O)cnc1C
3,< 100,COc1cc(-c2ccc3c(n2)[C@H](C)N(c2cn[nH]c2)C3=O)cnc1OC
4,< 100,Cc1cc(-c2cncc(OC(F)F)c2)nc2c1C(=O)N(c1ccnc(F)c1)C2C (stereo not drawn)
5,< 100,CO[C@H]1c2nc(-c3cncc(OCC(F)F)c3)cc(C)c2C(=O)N1c1cnn(CC(F)(F)F)c1
6,100 to 490,COc1cc(-c2ccc3c(n2)C(C)N(c2cnn(CC(C)(C)O)c2)C3=O)cnc1OC (stereo not drawn)
7,< 100,COCCOCn1cc(N2Cc3nc(-c4cnc(OC)c(OC)c4)ccc3C2=O)cn1
8,< 100,COc1cc(-c2cc(C)c3c(n2)CN(c2cnn(CC(F)(F)F)c2)C3=O)ccc1Cl
9,< 100,Cc1cc(-c2cncc(OC(F)F)c2)nc2c1C(=O)N(c1cnn(CC(F)(F)F)c1)C2(C)O (stereo not drawn)
10,< 100,Cc1cc(-c2cncc(C(=O)NCC(C)C)c2)nc2c1C(=O)N(c1cnn(CC(F)(F)F)c1)C2(C)C
11,< 100,COc1ncc(-c2cc(C)c3c(n2)CN(c2cnn(CC(F)(F)F)c2)C3=O)cc1OC(C)C
12,< 100,COc1cncc(-c2cc(C)c3c(n2)[C@H](C)N(c2ccn(CC(C)(C)O)n2)C3=O)c1
13,< 100,CCOc1cc(-c2cc(C)c3c(n2)CN(c2cnn(CC#N)c2)C3=O)cnc1OC
14,< 100,CCOc1cncc(-c2cc(C)c3c(n2)[C@@H](OC)N(c2cnn(CC(F)(F)F)c2)C3=O)c1
15,< 100,Cc1cc(-c2cncc(CO)c2)cc2c1C(=O)N(c1cnn(CC(F)(F)F)c1)C2C (stereo not drawn)
16,< 100,COc1cc(-c2ccc3c(n2)CN(c2cnn(Cc4cccnc4C)c2)C3=O)cnc1OC
17,100 to 490,COc1cc(-c2ccc3c(n2)C(C)N(c2cnn(C[C@@H](C)O)c2)C3=O)cnc1OC (stereo partly drawn)
18,< 100,COc1cc(-c2cc(C)c3c(n2)CN(c2ccc(OCCCC(F)(F)F)nc2)C3=O)cnc1OC
19,< 100,COc1cncc(-c2cc(C)c3c(n2)CN(c2ccn([C@H]4CCOC4)n2)C3=O)c1
20,< 100,CCNC(=O)c1cncc(-c2cc(C)c3c(n2)C(C)(C)N(c2cnn(CC(F)(F)F)c2)C3=O)c1
